Laboratory results from paper PMC9597602, “Metal Complexes as Antifungals? From a Crowd-Sourced Compound Library to the First In Vivo Experiments” (JACS Au, 2022).
Like-named read-outs stand apart in the source and are kept apart here.

How the values were obtained:
[1] = system: Candida auris CBS10913 JCM 15448; test: Antifungal MIC assay, extended panel; type: cell-based; conditions: extended panel; for MIC / MIC Candida auris CBS10913: second batch, ≥80 or ≥50% inhibition; for MIC: read-out: MIC* Candida auris CBS10913; for MIC50 Candida auris CBS10913: 50% inhibition, MIC score 2
Outline: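 Yeast strains were grown on YPD agar at 30 °C for 3 days. Five colonies were suspended to 1 × 10^6 to 5 × 10^6 CFU/mL (by OD530), diluted in YNB medium, and dispensed into compound-containing 384-well NBS plates to 2.5 × 10^3 CFU/mL in 50 μL. Covered plates were held at 35 °C for 36 h without shaking, and MIC was determined by broth dilution.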

[2] = system: Candida auris CBS12373 KCTC 17810; test: Antifungal MIC assay, extended panel; type: cell-based; conditions: extended panel; for MIC Candida auris CBS12373 / MIC: second batch, ≥80 or ≥50% inhibition; for MIC: read-out: MIC* Candida auris CBS12373; for MIC50 Candida auris CBS12373: 50% inhibition, MIC score 2
Outline: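 Yeast was grown for 3 days at 30 °C on YPD agar. Five colonies were suspended to 1 × 10^6 to 5 × 10^6 CFU/mL, checked by OD530, diluted in YNB medium, and dispensed onto compound-loaded 384-well NBS plates at 2.5 × 10^3 CFU/mL in 50 μL. Plates were covered and incubated without shaking at 35 °C for 36 h to determine MIC.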

[3] = system: Candida albicans ATCC 90028 NCCLS11; test: Antifungal MIC assay; type: cell-based; conditions: for MIC Ca: initial CO-ADD dose-response screening, ≥80% growth inhibition; for MIC50 Candida albicans ATCC 90028: 50% inhibition, MIC score 2
Outline: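 Colonies from 3-day YPD plates (30 °C) were suspended, diluted into YNB and added to compound plates at a final density of 2.5 × 10^3 CFU/mL. After 36 h at 35 °C without agitation, growth inhibition of ≥80% defined the MIC. Two technical replicates, 2–4 independent runs.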

[4] = system: human red blood cells; type: cell-based
Outline: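 Washed human erythrocytes at 0.5 × 10^8 cells/mL incubated with compound, then centrifuged. Haemolysis read as supernatant OD405, normalised to untreated cells (0%) and 1% Triton X-100 (100%), with melittin as internal plate control.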

[5] = system: methicillin-resistant Staphylococcus aureus ATCC 43300; test: CO-ADD antibacterial MIC assay; type: cell-based; conditions: initial CO-ADD dose-response screening; ≥80% growth inhibition
Outline: (§1)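 CAMHB broth microdilution; inoculum 5 × 10^5 CFU/mL from mid-log culture; 37 °C 18 h static; OD600 read-out; MIC at ≥80% inhibition; colistin (Gram-negative) and vancomycin (Gram-positive) internal controls.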

[6] = system: Pseudomonas aeruginosa ATCC 27853 QC control strain; test: CO-ADD antibacterial MIC assay; type: cell-based; conditions: initial CO-ADD dose-response screening; ≥80% growth inhibition
Outline: as §1

[7] = system: Acinetobacter baumannii ATCC 19606 type strain; test: CO-ADD antibacterial MIC assay; type: cell-based; conditions: initial CO-ADD dose-response screening; ≥80% growth inhibition
Outline: as §1

[8] = system: Escherichia coli ATCC 25922 FDA control strain; test: CO-ADD antibacterial MIC assay; type: cell-based; conditions: initial CO-ADD dose-response screening; ≥80% growth inhibition
Outline: as §1

[9] = system: G. mellonella larvae; test: Galleria mellonella in vivo toxicity assay; conditions: 10 μL of the highest concentration injected, monitored 6 days
Experimental: Based on criteria of overall antifungal activity, cytotoxicity, and hemolysis as well as compound availability, we selected compounds Co1, Ag2, Eu1, Ir1, Pt1, Pt2, Pt4, Pt5, Au1, Au2, and Au4 to conduct a preliminary in vivo toxicity assay. […] The compounds were dissolved in DMSO and diluted to the highest possible final concentration (Table 3). The larvae were then monitored for 6 days for survival and health using the G. mellonella Health Index Scoring System.[111] […] For the other compounds, no detrimental effects could be observed in the larvae over the monitoring period. […] Nevertheless, factors such as the metabolism, excretion, and/or accumulation of the various metal complexes and their metabolites will still need to be studied more rigorously in rodent models if they are to be advanced into the preclinical pipeline.
The toxicity of compounds was tested in vivo using the G. mellonella model using our previously described methods,[61] Briefly, G. mellonella larvae were reared in a controlled environmental room at Macquarie University, Sydney, Australia, at 30 °C and 65% humidity with a 12-h light/dark cycle. Larvae (200–250 mg) were individually injected with 10 μL of chemical into the last right pro-leg using a 100 μL syringe (Hamilton Ltd.). Each compound was dissolved in DMSO at the maximum concentration given in Table 3 and also diluted in water to final concentrations of 100, 10, and 1 μM. We injected five larvae in triplicate for each of the four dilutions for each compound. Larvae injected with different dilutions of DMSO (10^–1, 10^–2, and 10^–3) were included as negative controls. Following injection, the larvae were incubated at 30 °C and monitored every 24 h for 6 days. Larval performance was assessed according to the G. mellonella Health Index Scoring System.[111] The experiments were repeated over three separate days for biological triplicates.

[10] = extended panel, second batch, ≥80 or ≥50% inhibition
[11] = initial CO-ADD screening, 1 h, 10% hemolysis
[12] = ranges obtained upon retesting, new batch

In the case of C1=CCCC=CCC1.[I][Pt][I] [Pt2], the MIC [1] is reported as 12.5 µM, the “MIC Candida auris CBS12373” value [2] is reported as 3.13 to 6.25 µM and the “MIC Candida albicans ATCC 90028” value [3, 10] is reported as 12.5 to 25 µM. For the same molecule, the “MIC Ca” value [3] was 10 µM, the “RBC HC10” value [4, 11] was >20 µM and the “RBC HC10” value [4, 12] was > 100 µM. The “MIC MRSA (Sa)” value [5] was 0.625 µM, the “MIC Pa” value [6] was >20 µM and the “MIC Ab” value [7] was >20 µM. The “MIC Ec” value [8] was >20 µM and the toxicity [9] was “nontoxic”.
With Cc1ccc2ccc3ccc(C)nc3c2n1.Cc1ccc2ccc3ccc(C)nc3c2n1.O=C([O][Eu]([O]C(=O)c1ccccc1F)[O]C(=O)c1ccccc1F)c1ccccc1F [Eu1] the MIC [1] was 0.006 µM, the “MIC50 Candida auris CBS10913” value [1] was ≤ 0.006 µM and the MIC [2] was 0.006 µM. The “MIC50 Candida auris CBS12373” value [2] was ≤ 0.006 µM, the “MIC Candida albicans ATCC 90028” value [3, 10] was ≤0.006 to 0.012 µM and the “MIC50 Candida albicans ATCC 90028” value ([3]; extended panel) was ≤0.006 to 0.012 µM. For the same molecule, the “RBC HC10” value [4, 11] was >20 µM, the “RBC HC10” value [4, 12] was > 200 µM and the “hemolysis: none up to stated concentration” value ([4]; retest) was > 200 µM. The “MIC MRSA (Sa)” value [5] was >20 µM, the “MIC Pa” value [6] was >20 µM and the “MIC Ab” value [7] was >20 µM. For the same molecule, the “MIC Ec” value [8] was >20 µM and the toxicity [9] was “nontoxic”.
For C1=CCCC=CCC1.[Cl][Pt][Cl] [Pt1], the “MIC Candida auris CBS10913” value [1] was 6.25 to 12.5 µM, the MIC [2] was 3.13 µM and the “MIC Candida albicans ATCC 90028” value [3, 10] was 12.5 to 25 µM. The “MIC Ca” value [3] was 10 µM, the “RBC HC10” value [4, 11] was >20 µM and the “RBC HC10” value [4, 12] was > 100 µM. For the same molecule, the “MIC MRSA (Sa)” value [5] was 1.25 µM, the “MIC Pa” value [6] was >20 µM and the “MIC Ab” value [7] was >20 µM. The “MIC Ec” value [8] was >20 µM and the toxicity [9] was “nontoxic”.
For COc1ccc(/C=C/C2=NN(c3ccc(C(=O)[O][Ag])cc3)C(c3ccc(OC)c(OC)c3)C2)cc1OC.COc1ccc(/C=C/C2=NN(c3ccc(C(=O)[O][Ag])cc3)C(c3ccc(OC)c(OC)c3)C2)cc1OC (racemic) [Ag1, (Ε)-1-(4-Carboxyphenyl)-5-(3,4-dimethoxyphenyl)-3-(3,4-dimethoxystyryl)-2-pyrazoline silver(I) complex], the MIC [1] was 0.006 µM, the “MIC50 Candida auris CBS10913” value [1] was ≤ 0.006 µM and the MIC [2] was ≤0.006 µM. For the same molecule, the “MIC50 Candida auris CBS12373” value [2] was ≤ 0.006 µM, the MIC ([3]; extended panel, second batch, ≥80 or ≥50% inhibition, read-out: MIC* Candida albicans ATCC 90028) was ≤0.006 µM and the “MIC50 Candida albicans ATCC 90028” value ([3]; extended panel) was ≤ 0.006 µM. The “MIC Ca” value [3] was ≤0.25 µg/mL, the “RBC HC10” value [4, 11] was >32 µg/mL and the “RBC HC10” value [4, 12] was 13 to 154 µM. For the same molecule, the “MIC MRSA (Sa)” value [5] was >32 µg/mL, the “MIC Pa” value [6] was >32 µg/mL and the “MIC Ab” value [7] was >32 µg/mL. For the same molecule, the “MIC Ec” value [8] was >32 µg/mL.
In the case of CC(=NN=C(N)[S-])C(C)=NN=C(N)[S-].O=[N+]([O-])[O-].[Co+3].c1c[nH]cn1.c1c[nH]cn1 [Co1], the “MIC Candida auris CBS10913” value [1] is reported as 0.39 to 0.78 µM, the “MIC Candida auris CBS12373” value [2] is reported as 0.39 to 0.78 µM and the “MIC Candida albicans ATCC 90028” value [3, 10] is reported as 0.78 to 1.56 µM. The “MIC Ca” value [3] was 0.5 µg/mL, the “RBC HC10” value [4, 11] was >32 µg/mL and the “RBC HC10” value [4, 12] was > 100 µM. The “MIC MRSA (Sa)” value [5] was >32 µg/mL, the “MIC Pa” value [6] was >32 µg/mL and the “MIC Ab” value [7] was >32 µg/mL. For the same molecule, the “MIC Ec” value [8] was >32 µg/mL and the toxicity [9] was “nontoxic”.
With O=C([O][Ag])c1ccc(N2N=C(/C=C/C=C/c3ccccc3)CC2/C=C/c2ccccc2)cc1.O=C([O][Ag])c1ccc(N2N=C(/C=C/C=C/c3ccccc3)CC2/C=C/c2ccccc2)cc1 (racemic) [Ag2, 1-(4-Carboxyphenyl)-3-{(1E,3E)-4-phenylbuta-1,3-dien-1-yl}-5-{(E)-styryl}-2-pyrazoline silver(I) complex] the “MIC Candida auris CBS10913” value [1] was 0.006 to 0.098 µM, the “MIC50 Candida auris CBS10913” value [1] was ≤0.006 to 0.049 µM and the “MIC Candida auris CBS12373” value [2] was 0.006 to 0.098 µM. For the same molecule, the “MIC50 Candida auris CBS12373” value [2] was ≤0.006 to 0.098 µM, the “MIC Candida albicans ATCC 90028” value [3, 10] was ≤0.006 to 0.098 µM and the “MIC50 Candida albicans ATCC 90028” value ([3]; extended panel) was ≤0.006 to 0.098 µM. For the same molecule, the “MIC Ca” value [3] was ≤0.25 µg/mL, the “RBC HC10” value [4, 11] was >32 µg/mL and the “RBC HC10” value [4, 12] was > 200 µM. The “MIC MRSA (Sa)” value [5] was >32 µg/mL, the “MIC Pa” value [6] was >32 µg/mL and the “MIC Ab” value [7] was >32 µg/mL. For the same molecule, the “MIC Ec” value [8] was >32 µg/mL and the toxicity [9] was “nontoxic”.
In the case of CC(C)C([O][Pt][Cl])C1=CCCC=CCC1 (stereo not shown) [Pt4], the “MIC Candida auris CBS10913” value [1] is reported as 6.25 to 12.5 µM, the “MIC Candida auris CBS12373” value [2] is reported as 1.56 to 3.12 µM and the “MIC Candida albicans ATCC 90028” value [3, 10] is reported as 6.25 to 12.5 µM. The “MIC Ca” value [3] was 10 µM, the “RBC HC10” value [4, 11] was >20 µM and the “RBC HC10” value [4, 12] was > 100 µM. For the same molecule, the “MIC MRSA (Sa)” value [5] was >20 µM, the “MIC Pa” value [6] was >20 µM and the “MIC Ab” value [7] was >20 µM. The “MIC Ec” value [8] was >20 µM and the toxicity [9] was “nontoxic”.
